Counter-ions that a name gives are not always drawn.
Legend:
HBV cccDNA [1] = assay: Compound screening in RG-Hibit16 reporter cells (HiBiT in supernatant); type: cell-based, hepatitis B virus; conditions: 1 µM, 4 days of compound treatment, among 189 compounds
Description: (§1) Detection of HiBiT: Nano Glo HiBiT Extracellular Detection System (Cat. No. N2421) of Promega Corporation was used for HiBiT detection, and the detection steps were carried out according to the kit instructions.
(§2) The reporter model prepared in Example 1 comprised an HBV variant integrated with 3 repeats of HiBiT sequence. The mRNA transcribed directly from the HBV variant as a template lacked the initiation codon for HiBiT expression, and could not translate the protein attached to the HiBiT tag. Only after the pgRNA transcribed from the HBV variant was reversely transcribed to form cccDNA, the mRNA transcribed from cccDNA as a template could translate the protein attached to the HiBiT tag, so the expression level of HiBiT could be used to indicate the formation of HBV cccDNA. In the reporter model prepared in Example 2, the HiBiT sequence was inserted in the middle of the HBV core sequence, the N-terminus sequence and C-terminus sequence of the core were respectively attached to the C-terminus and N-terminus of the HBV replicon, and loxP sequences were ligated to both ends of the HBV replicon, so that in the absence of Cre recombinase expression, the HiBiT tag lacked a promoter and could not be expressed; but with the expression of Cre recombinase, it could mediate the recombination of double-stranded DNA, so that the linear HBV genome DNA formed a closed circular DNA, and after the circular DNA was formed, the HiBiT tag could use the endogenous promoter of HBV to initiate the expression of the protein attached to the HiBiT tag, so the signal of the HiBiT tag could be used to indicate the formation of recombinant HBV cccDNA, i.e., HBV rcccDNA.

HBV rcccDNA = assay: Compound screening in G2-Rccc1a reporter cells (HiBiT in supernatant, Adv-Cre); type: cell-based, hepatitis B virus; conditions: 1 µM, 4 days of compound treatment, among 189 compounds
Description: as §1, §2

HBV = assay: HepG2-hNTCP-2B1 HBV infection model; type: cell-based, hepatitis B virus; conditions: for effect on intracellular cccDNA: HepG2-hNTCP-2B1, after 8 days of infection
From the text: Detection of HBsAg/HBeAg: The detection procedures of hepatitis B surface antigen (chemiluminescence method CLEIA, product standard number: YZB/Guo 0346-2014) and e antigen (enzyme-linked immunosorbent assay ELISA, product standard number: YZB/Guo 0216-2013) were both carried out according to the detection methods of the kits of Beijing Wantai Company.
(§3) Detection of HBV cccDNA: The modified Hirt method was used for HBV cccDNA extraction, with Tiangen Plasmid Mini Kit. The lysis buffers involved were Buffer I (50 mM Tris, 10 mM EDTA, pH 7.5), Buffer II (1.2 % SDS), Buffer III (3 M CsCl, 1 M potassium acetate, 0.67 M acetic acid), which were used to replace P1, P2 and P3 in the Tiangen Plasmid Mini Kit respectively. The extraction steps and methods were performed by referring to the plasmid extraction method of the kit. The instrument used is Roche’s LightCycler® 96. HBV cccDNA and mitochondrial DNA (mtDNA) were quantified respectively, and the relative values of HBV cccDNA and mtDNA were calculated.
We further verified the functions of these 6 compounds in the HepG2-hNTCP-2B1 infection model. HepG2-hNTCP-2B1 was the single clone 2B1 selected for the highest susceptibility to HBV which is made by overexpressing hNTCP in HepG2 cells. In the evaluation by this model, the cells were firstly infected with HBV virus, washed with PBS to remove the residual virus on the next day, different compounds were added after 2 days, and then the cell supernatant was collected and fresh medium was replaced every 2 days, the viral antigen in the cell supernatant was detected, the cells were lysed after 8 days of infection, the intracellular HBV cccDNA was detected, and the evaluation results were shown in FIG. 7. […] The functions of these five compounds were verified in the HepG2-hNTCP-2B1 infection model, and the evaluation strategy was the same as that of the aforementioned inhibitor.

RG-Hibit16 cells = assay: CCK8 cytotoxicity in RG-Hibit16 cells; conditions: 1 µM, 4 days
Description: (§4) In this example, the reporter model of Example 1 (HepaRG-Hibit16 integrated with Hibit16 constructed based on HepaRG cells) and the reporter model of Example 2 (HepG2-Rccc1a integrated with Rccc1a constructed based on HepG2) were investigated for screening cccDNA inhibitors. These two cells were used to evaluate the potential of 189 drugs to inhibit cccDNA, including clinical drugs for different diseases or drugs in the clinical research stage. The screening work was carried out in a 96-well cell culture plate, RG-Hibit16 cells were plated at a cell density of 15,000/well, and G2-Rcccla cells were plated at a cell density of 35,000/well. RG-Hibit16 cells were treated with drugs 1 week after plating. For RG-Hibit16, different compounds were added for treatment when Dox was added to induce virus expression; the next day after G2-Rccc1a cells were plated, they were firstly infected with adenovirus Adv-Cre to express Cre recombinase protein, and different compounds were added 2 days later for treatment, and all compounds were diluted to 1 µM at the final concentration, 200 µL per well; new medium was replaced every 2 days, the expression of HiBiT in the cell supernatant was detected after 4 days of compound treatment, and CCK8 detection reagent was added at a ratio of 10:1 to detect the cytotoxicity of the compounds.

G2-Rccc1a cells = assay: CCK8 cytotoxicity in G2-Rccc1a cells; conditions: 1 µM, 4 days
Description: as §4

HBV cccDNA [2] = assay: HepaRG-Hibit16 reporter cells, evaluation of HBV inhibitors (Doxycycline induction); type: cell-based, hepatitis B virus; conditions: for formation of cccDNA: Doxycycline-induced, cell lysate
Description: as §1, §3
HepaRG-Hibit16 cells were obtained by transfecting HepaRG cells with Hibit16 plasmid and PiggyBac transposase, integrating the HBV variant sequence (Hibit16) and selection markers into the genome of the cells, and screened by puromycin resistance and red fluorescent marker; Doxycycline could activate TRE3G promoter to initiate the expression of iRFP670, as well as the transcription and replication of HBV, thereby generating HiBiT, as shown in FIG. 4A. To evaluate the function of HBV inhibitors in the cells, the cells were first plated, and Doxycycline was added to induce viral transcription and replication while different HBV inhibitors were added for intervention. The cell supernatant was collected every 2 days, the medium was replaced, and the HiBiT signal, HBsAg, HBeAg in the cell supernatant, and the HBV DNA and HBV cccDNA in the cell lysate were detected, and the responses of the cells to HBV inhibitors were shown in FIGS. 4B-F. Tenofovir (tenofovir disoproxil fumarate, TDF) is a nucleotide reverse transcriptase inhibitor, and Morphothiadin (abbreviation: Mor) is an assembly regulator of core particles, which are already in the clinical Phase II/III evaluation stage, and both can inhibit the formation of cccDNA.

[3] = HepG2-hNTCP-2B1, cell supernatant

Row | SMILES | expression level of HiBiT (surrogate for HBV cccDNA) (HBV cccDNA [1]) | expression level of HiBiT (surrogate for HBV rcccDNA) (HBV rcccDNA) | effect on intracellular cccDNA (HBV) | effect on HBeAg (HBV; [3]) | cytotoxicity (CCK8) (RG-Hibit16 cells) | cytotoxicity (CCK8) (G2-Rccc1a cells) | other results
1 | CC[C@]1(O)C[C@H]2CN(CCc3c([nH]c4ccccc34)[C@@](C(=O)OC)(c3cc4c(cc3OC)N(C=O)[C@H]3[C@@](O)(C(=O)OC)[C@H](OC(C)=O)[C@]5(CC)C=CCN6CC[C@]43[C@@H]65)C2)C1 [Vincristine] | up-regulated effects | up-regulated effects | up-regulate | weak promotion effect | – | – | expression level of HBsAg (HBV; [3]): significantly up-regulate
2 | CC1(C)CCC(C)(C)c2cc(Cn3cccn3)c(/C=C/c3ccc(C(=O)O)cc3)cc21 [Palovarotene] | most significantly inhibited | most significantly inhibited | – | – | no obvious cytotoxicity | no obvious cytotoxicity | inhibition rate against HBsAg (HBV; [3]): more than 60%; inhibitory effect on HBsAg (HBV; [3]): relatively poor; inhibition rate against HBV cccDNA (HBV; HepG2-hNTCP-2B1, intracellular, after 8 days of infection): more than 60%
3 | COc1ccccc1N1CCN(CC(O)COc2cccc3ccccc23)CC1 (stereo not drawn) [Naftopidil] | up-regulated effects | up-regulated effects | – | weak promotion effect | – | – | –
4 | N=C(N)NC(=O)Cc1c(Cl)cccc1Cl [Guanfacine] | most significantly inhibited | – | – | – | no obvious cytotoxicity | no obvious cytotoxicity | –
5 | CCOC(=O)C1=C(CN2CCOCC2)NC(c2nccs2)=NC1c1ccc(F)cc1Br (stereo not drawn) [Mor, Morphothiadin] | – | – | – | – | – | – | formation of cccDNA (HBV cccDNA [2]): could inhibit the formation of cccDNA; expression level of HiBiT vs control group (HBV cccDNA [2]; cell supernatant): significantly lower than that in the control group
6 | CN1CCc2c(c3ccccc3n2Cc2ccccc2)C1 [Mebhydrolin] | up-regulated effects | up-regulated effects | up-regulate | weak promotion effect | – | – | –
7 | C[C@H]1O[C@@H](n2cc(F)c(=O)[nH]c2=O)[C@H](O)[C@@H]1O [Doxifluridine] | – | most significantly inhibited | significant inhibitory effect | – | no obvious cytotoxicity | no obvious cytotoxicity | –
8 | CC(C)OC(=O)OCOP(=O)(CO[C@H](C)Cn1cnc2c(N)ncnc21)OCOC(=O)OC(C)C [TDF, tenofovir disoproxil fumarate] | – | – | – | – | – | – | formation of cccDNA (HBV cccDNA [2]): could inhibit the formation of cccDNA
9 | CCCCCCCCCCCCCCCC[n+]1ccccc1 [Cetylpyridinium] | – | – | – | – | no obvious cytotoxicity | no obvious cytotoxicity | –
10 | Nc1nc(Cl)nc2c1ncn2[C@H]1C[C@H](O)[C@@H](CO)O1 [Cladribine] | up-regulated effects | up-regulated effects | up-regulate | weak promotion effect | – | – | expression level of HBsAg (HBV; [3]): significantly up-regulate
11 | O=C(O)c1cc(-c2ccccc2)nc2ccccc12 [Cinchophen] | up-regulated effects | up-regulated effects | up-regulate | weak promotion effect | – | – | –
12 | C[C@@H](Oc1cc(-c2cnn(C3CCNCC3)c2)cnc1N)c1c(Cl)ccc(F)c1Cl [Crizotinib] | – | most significantly inhibited | – | – | no obvious cytotoxicity | no obvious cytotoxicity | –
13 | O=C1c2c(O)cccc2Cc2cccc(O)c21 [Dithranol] | – | – | – | – | no obvious cytotoxicity | no obvious cytotoxicity | –

From patent US20230323369A1, “SCREENING MODEL AND METHOD FOR HBV CCCDNA-TARGETING DRUG” (priority 2020, published 2023)
